Test results: patent US20100099561A1, “HETEROBICYCLIC ALKYLTHIO-BRIDGED ISOXAZOLINES” (E.I. DU PONT DE NEMOURS AND COMPANY, priority 2008, published 2010)

Columns and labels:
Assay type in all cases: in vivo
[1] = test system: woolly cupgrass (Eriochloa villosa); assay: Test B preemergence, woolly cupgrass; settings: scale 0 to 100
Source text: (§1) Seeds of plant species selected from blackgrass (Alopecurus myosuroides), downy bromegrass (Bromus tectorum), green foxtail (Setaria viridis), Italian ryegrass (Lolium multiflorum), wheat (Triticum aestivum), wild oat (Avena fatua), catchweed bedstraw (Galium aparine), bermudagrass (Cynodon dactylon), Surinam grass (Brachiaria decumbens), cocklebur (Xanthium strumarium), corn (Zea mays), large crabgrass (Digitaria sanguinalis), woolly cupgrass (Eriochloa villosa), giant foxtail (Setaria faberii), goosegrass (Eleusine indica), johnsongrass (Sorghum halepense), kochia (Kochia scoparia), lambsquarters (Chenopodium album), morningglory (Ipomoea coccinea), nightshade (eastern black nightshade, Solanum ptycanthum), yellow nutsedge (Cyperus esculentus), pigweed (Amaranthus retroflexus), ragweed (common ragweed, Ambrosia elatior), soybean (Glycine max), sunflower (common oilseed sunflower, Helianthus annuus), Russian thistle (Salsola kali), and velvetleaf (Abutilon theophrasti) were planted into a blend of loam soil and sand and treated preemergence with test compounds formulated in a non-phytotoxic solvent mixture which included a surfactant. Treated plants and controls were maintained in a greenhouse for 13 to 15 days, after which time all species were compared to controls and visually evaluated. Plant response ratings, summarized in Table B, are based on a scale of 0 to 100 where 0 is no effect and 100 is complete control. A dash (-) response means no test result.

[2] = test system: bermudagrass (Cynodon dactylon); assay: Test B preemergence, bermudagrass; settings: scale 0 to 100
Source text: as §1

corn (Zea mays) [3] = assay: Test B preemergence, corn; settings: scale 0 to 100
Source text: as §1

[4] = test system: large crabgrass (Digitaria sanguinalis); assay: Test B preemergence, large crabgrass; settings: scale 0 to 100
Source text: as §1

[5] = test system: large crabgrass (Digitaria sanguinalis); assay: Test A preemergence, large crabgrass; settings: 0 to 100 scale (0 no effect, 100 complete control)
How it was run: (§2)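 Greenhouse pre/postemergence test, loam–sand soil. Postemergence plants one- to two-leaf, 2–10 cm. Visual injury rating ~10 d after treatment, 0–100 vs untreated.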

[6] = test system: velvetleaf (Abutilon theophrasti); assay: Test A preemergence, velvetleaf; settings: 0 to 100 scale (0 no effect, 100 complete control)
How it was run: as §2

[7] = test system: barnyardgrass (Echinochloa crus-galli); assay: Test B flooded paddy test, barnyardgrass; settings: Flood
How it was run: (§3)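 Step one: raise plants to 2 leaves. Step two: flood pots 3 cm over the soil and apply compound into the water, keeping this depth. Step three: after 13–15 greenhouse days, score visually versus controls, 0–100, where 100 means complete control.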

[8] = test system: wheat (Triticum aestivum); assay: Test A preemergence, wheat; settings: 0 to 100 scale (0 no effect, 100 complete control)
How it was run: as §2

soybean (Glycine max) = assay: Test B preemergence, soybean; settings: Preemergence, scale 0 to 100
Source text: as §1

[9] = test system: barnyardgrass (Echinochloa crus-galli); assay: Test A preemergence, barnyardgrass; settings: 0 to 100 scale (0 no effect, 100 complete control)
How it was run: as §2

[10] = test system: giant foxtail (Setaria faberi); assay: Test A preemergence, giant foxtail; settings: 0 to 100 scale (0 no effect, 100 complete control)
How it was run: as §2

[11] = test system: umbrella sedge (Cyperus difformis); assay: Test B flooded paddy test, umbrella sedge; settings: Flood, scale 0 to 100
How it was run: as §3

[12] = test system: velvetleaf (Abutilon theophrasti); assay: Test B preemergence, velvetleaf; settings: Preemergence, scale 0 to 100
Source text: as §1

[13] = test system: morningglory (Ipomoea spp.); assay: Test A preemergence, morningglory; settings: 0 to 100 scale (0 no effect, 100 complete control)
How it was run: as §2

[14] = test system: Surinam grass (Brachiaria decumbens); assay: Test B preemergence, Surinam grass; settings: Preemergence, scale 0 to 100
Source text: as §1

[15] = test system: pigweed (Amaranthus retroflexus); assay: Test A preemergence, pigweed; settings: 0 to 100 scale (0 no effect, 100 complete control)
How it was run: as §2

[16] = test system: catchweed bedstraw (Galium aparine); assay: Test B preemergence, catchweed bedstraw; settings: scale 0 to 100
Source text: as §1

[17] = test system: giant foxtail (Setaria faberi); assay: Test A postemergence, giant foxtail; settings: 0 to 100 scale (0 no effect, 100 complete control)
How it was run: as §2

[18] = test system: nightshade (eastern black nightshade, Solanum ptycanthum); assay: Test B preemergence, nightshade; settings: scale 0 to 100
Source text: as §1

corn (Zea mays) [19] = assay: Test A preemergence, corn; settings: 0 to 100 scale (0 no effect, 100 complete control)
How it was run: as §2

[20] = 250 g ai/ha, scale 0 to 100 (0 no effect, 100 complete control)

CC1(C)CC(S(=O)(=O)Cc2c(C(F)(F)C(F)(F)F)nc3n(c2=O)CCC3)=NO1 [Compound 22]
Plant response rating, Cupgrass, Woolly ([1]; 16 g ai/ha): 100 | Plant response rating, Cupgrass, Woolly ([1]; 31 g ai/ha): 100 | Plant response rating, Cupgrass, Woolly ([1]; 62 g ai/ha): 100 | Plant response rating, Cupgrass, Woolly ([1]; 125 g ai/ha): 100 | Plant response rating, Bermudagrass ([2]; 16 g ai/ha): 98 | Plant response rating, Bermudagrass ([2]; 31 g ai/ha): 100 | Plant response rating, Bermudagrass ([2]; 62 g ai/ha): 100 | Plant response rating, Bermudagrass ([2]; 125 g ai/ha): 100 | Plant response rating, Corn (corn (Zea mays) [3]; 16 g ai/ha): 0 | Plant response rating, Corn (corn (Zea mays) [3]; 31 g ai/ha): 0 | Plant response rating, Corn (corn (Zea mays) [3]; 62 g ai/ha): 0 | Plant response rating, Corn (corn (Zea mays) [3]; 125 g ai/ha): 10 | Plant response rating, Crabgrass, Large ([4]; 16 g ai/ha): 85 | Plant response rating, Crabgrass, Large ([4]; 31 g ai/ha): 90 | Plant response rating, Crabgrass, Large ([4]; 62 g ai/ha): 98 | Plant response rating, Crabgrass, Large ([4]; 125 g ai/ha): 100 | Plant response rating, Crabgrass, Large ([5]; 125 g ai/ha): 90 | Plant response rating, Crabgrass, Large ([5]; 500 g ai/ha): 100 | Plant response rating, Velvetleaf ([6]; 125 g ai/ha): 30 | Plant response rating, Velvetleaf ([6]; 500 g ai/ha): 90 | Plant response rating, Barnyardgrass ([7]; 62 g ai/ha, scale 0 to 100): 0 | Plant response rating, Barnyardgrass [7, 20]: 0 | Plant response rating, Wheat ([8]; 125 g ai/ha): 0 | Plant response rating, Wheat ([8]; 500 g ai/ha): 50 | Plant response rating, Soybean (soybean (Glycine max); 16 g ai/ha): 0 | Plant response rating, Soybean (soybean (Glycine max); 31 g ai/ha): 0 | Plant response rating, Soybean (soybean (Glycine max); 62 g ai/ha): 0 | Plant response rating, Soybean (soybean (Glycine max); 125 g ai/ha): 0 | Plant response rating, Barnyardgrass ([9]; 125 g ai/ha): 80 | Plant response rating, Barnyardgrass ([9]; 500 g ai/ha): 90 | Plant response rating, Foxtail, Giant ([10]; 125 g ai/ha): 90 | Plant response rating, Foxtail, Giant ([10]; 500 g ai/ha): 100 | Plant response rating, Sedge, Umbrella ([11]; 62 g ai/ha): 0 | Plant response rating, Sedge, Umbrella ([11]; 250 g ai/ha): 0 | Plant response rating, Velvetleaf ([12]; 16 g ai/ha): 0 | Plant response rating, Velvetleaf ([12]; 31 g ai/ha): 0 | Plant response rating, Velvetleaf ([12]; 62 g ai/ha): 60 | Plant response rating, Velvetleaf ([12]; 125 g ai/ha): 100 | Plant response rating, Morningglory ([13]; 125 g ai/ha): 50 | Plant response rating, Morningglory ([13]; 500 g ai/ha): 80 | Plant response rating, Surinam Grass ([14]; 16 g ai/ha): 0 | Plant response rating, Surinam Grass ([14]; 31 g ai/ha): 0 | Plant response rating, Surinam Grass ([14]; 62 g ai/ha): 90 | Plant response rating, Surinam Grass ([14]; 125 g ai/ha): 95 | Plant response rating, Pigweed ([15]; 125 g ai/ha): 10 | Plant response rating, Pigweed ([15]; 500 g ai/ha): 90 | Plant response rating, Galium ([16]; 16 g ai/ha): 0 | Plant response rating, Galium ([16]; 31 g ai/ha): 0 | Plant response rating, Galium ([16]; 62 g ai/ha): 0 | Plant response rating, Galium ([16]; 125 g ai/ha): 0 | Plant response rating, Foxtail, Giant ([17]; 125 g ai/ha): 70 | Plant response rating, Foxtail, Giant ([17]; 500 g ai/ha): 80 | Plant response rating, Nightshade ([18]; 16 g ai/ha): 0 | Plant response rating, Nightshade ([18]; 31 g ai/ha): 60 | Plant response rating, Nightshade ([18]; 62 g ai/ha): 90 | Plant response rating, Nightshade ([18]; 125 g ai/ha): 100 | Plant response rating, Corn (corn (Zea mays) [19]; 125 g ai/ha): 0 | Plant response rating, Corn (corn (Zea mays) [19]; 500 g ai/ha): 0

CC1(C)CC(S(=O)(=O)Cc2c(C(F)(F)F)nc3ccsn3c2=O)=NO1 [Compound 16]
Plant response rating, Cupgrass, Woolly ([1]; 16 g ai/ha): 0 | Plant response rating, Cupgrass, Woolly ([1]; 31 g ai/ha): 25 | Plant response rating, Cupgrass, Woolly ([1]; 62 g ai/ha): 95 | Plant response rating, Cupgrass, Woolly ([1]; 125 g ai/ha): 98 | Plant response rating, Corn (corn (Zea mays) [3]; 16 g ai/ha): 0 | Plant response rating, Corn (corn (Zea mays) [3]; 31 g ai/ha): 0 | Plant response rating, Corn (corn (Zea mays) [3]; 62 g ai/ha): 0 | Plant response rating, Corn (corn (Zea mays) [3]; 125 g ai/ha): 0 | Plant response rating, Crabgrass, Large ([4]; 16 g ai/ha): 70 | Plant response rating, Crabgrass, Large ([4]; 31 g ai/ha): 95 | Plant response rating, Crabgrass, Large ([4]; 62 g ai/ha): 100 | Plant response rating, Crabgrass, Large ([4]; 125 g ai/ha): 100 | Plant response rating, Crabgrass, Large ([5]; 125 g ai/ha): 90 | Plant response rating, Crabgrass, Large ([5]; 500 g ai/ha): 90 | Plant response rating, Velvetleaf ([6]; 125 g ai/ha): 50 | Plant response rating, Velvetleaf ([6]; 500 g ai/ha): 60 | Plant response rating, Barnyardgrass ([7]; 62 g ai/ha, scale 0 to 100): 0 | Plant response rating, Barnyardgrass [7, 20]: 0 | Plant response rating, Wheat ([8]; 125 g ai/ha): 0 | Plant response rating, Wheat ([8]; 500 g ai/ha): 0 | Plant response rating, Soybean (soybean (Glycine max); 16 g ai/ha): 0 | Plant response rating, Soybean (soybean (Glycine max); 31 g ai/ha): 0 | Plant response rating, Soybean (soybean (Glycine max); 62 g ai/ha): 0 | Plant response rating, Soybean (soybean (Glycine max); 125 g ai/ha): 0 | Plant response rating, Barnyardgrass ([9]; 125 g ai/ha): 50 | Plant response rating, Barnyardgrass ([9]; 500 g ai/ha): 80 | Plant response rating, Foxtail, Giant ([10]; 125 g ai/ha): 90 | Plant response rating, Foxtail, Giant ([10]; 500 g ai/ha): 90 | Plant response rating, Sedge, Umbrella ([11]; 62 g ai/ha): 0 | Plant response rating, Sedge, Umbrella ([11]; 250 g ai/ha): 40 | Plant response rating, Velvetleaf ([12]; 16 g ai/ha): 0 | Plant response rating, Velvetleaf ([12]; 31 g ai/ha): 0 | Plant response rating, Velvetleaf ([12]; 62 g ai/ha): 0 | Plant response rating, Velvetleaf ([12]; 125 g ai/ha): 0 | Plant response rating, Morningglory ([13]; 125 g ai/ha): 70 | Plant response rating, Morningglory ([13]; 500 g ai/ha): 80 | Plant response rating, Surinam Grass ([14]; 16 g ai/ha): 0 | Plant response rating, Surinam Grass ([14]; 31 g ai/ha): 55 | Plant response rating, Surinam Grass ([14]; 62 g ai/ha): 95 | Plant response rating, Surinam Grass ([14]; 125 g ai/ha): 98 | Plant response rating, Pigweed ([15]; 500 g ai/ha): 100 | Plant response rating, Galium ([16]; 16 g ai/ha): 0 | Plant response rating, Galium ([16]; 31 g ai/ha): 0 | Plant response rating, Galium ([16]; 62 g ai/ha): 0 | Plant response rating, Galium ([16]; 125 g ai/ha): 70 | Plant response rating, Foxtail, Giant ([17]; 125 g ai/ha): 80 | Plant response rating, Foxtail, Giant ([17]; 500 g ai/ha): 90 | Plant response rating, Nightshade ([18]; 16 g ai/ha): 0 | Plant response rating, Nightshade ([18]; 31 g ai/ha): 0 | Plant response rating, Nightshade ([18]; 62 g ai/ha): 85 | Plant response rating, Nightshade ([18]; 125 g ai/ha): 95 | Plant response rating, Corn (corn (Zea mays) [19]; 125 g ai/ha): 0 | Plant response rating, Corn (corn (Zea mays) [19]; 500 g ai/ha): 0
